Source: paper PMC7463913, “The Interaction of Fluorinated Glycomimetics with DC-SIGN: Multiple Binding Modes Disentangled by the Combination of NMR Methods and MD Simulations” (Pharmaceuticals, 2020)

Molecular target: T1, DC-SIGN (ECD) (Homo sapiens, UniProt Q9NNX6)
T1 construct: DC-SIGN full extracellular domain (ECD, residues 70-404, Thermo Fischer Scientific); made in house
T1 sequence (Q9NNX6 70-404): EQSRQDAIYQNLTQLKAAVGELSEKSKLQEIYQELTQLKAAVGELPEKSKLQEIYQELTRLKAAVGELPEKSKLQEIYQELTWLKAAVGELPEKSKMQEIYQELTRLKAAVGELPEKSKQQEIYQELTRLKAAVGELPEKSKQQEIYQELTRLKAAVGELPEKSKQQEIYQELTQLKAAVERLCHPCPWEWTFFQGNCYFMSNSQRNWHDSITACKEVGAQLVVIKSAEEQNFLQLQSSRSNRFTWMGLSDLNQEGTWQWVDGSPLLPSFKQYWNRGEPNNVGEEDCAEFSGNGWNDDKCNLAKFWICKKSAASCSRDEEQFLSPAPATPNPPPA
Test: competitive 19F-R2 filtered NMR experiments (spy molecule 6-F-ManαOMe)
Assay type: binding
Details: non-linear least squares fitting; [6-F-ManαOMe] 400 µM, [DC-SIGN (CRDs)] 10 µM; 298 K, pH 8.0
Excerpt: In order to gain insights into the effects that the different fluorination patterns may have in the binding event, the affinities of 1b, the natural analogue of 1, as well as 1c and 1d, two partially fluorinated trisaccharides, were also estimated. (Table 2, Figure S1).
For KD estimation of 6-deoxy-6-F-Man (the spy-molecule), the free evolution delay was set to an optimized value τ=1 ms , after using relaxation dispersion experiments to assure a negligible chemical exchange contribution to R2,obs (Figure S1a). The KI of 1, 1b-d, 2, and 3 with DC-SIGN (ECD) was determined by titration experiments in a competitive fashion. Increasing amounts of the competitor molecules (compounds 1, 1b-d, 2, and 3) were added to a solution mixture of the spy molecule and the protein in each case, calculating the R2,obs of the spy molecule at each competitor concentration while the ratio [Spy-molecule]/[Protein] is fixed (40:1) (Figure S1c).
19F-R2 filtered experiments
The KD of compounds 1, 1b-d, 2 and 3 was estimated applying a 19F-R2 filtered approach. 6-F-ManαOMe, which weakly binds to DC-SIGN, was selected as the spy molecule. Relaxation rates R2 were determined employing a CPMG pulse sequence, by fitting the observed 19F signal intensity to the exponential decay curve:
ܫ(ݐ) = ܫ଴݁ି௧ோమ = ܫ଴݁ି௡ଶఛோమ (1) where ܫ(ݐ) refers to intensity at time ݐ, ܫ଴ is intensity at ݐ = 0, and ܴଶ is the transversal relaxation rate (ܴଶ = 1/ܶଶ).
In the limit of fast-exchange where the exchange contribution to the observed transversal relaxation rate ܴଶ,௢௕௦ is insignificant (Figure S1, a)), the following equations apply:
ܴଶ,௢௕௦ = ܴଶ,௙ + ൫ܴଶ,௕ − ܴଶ,௙൯݌௕ (2)
[ܲ]் + [ܮ]் + ܭ஽ − ඥ([ܲ]் + [ܮ]் + ܭ஽)ଶ − 4[ܲ]்[ܮ]் (3) where [ܲ]் and [ܮ]் are the total protein and ligand concentrarion respectively, [ܴ]ଶ,௙ and [ܴ]ଶ,௕ are the relaxation rates in the free and bound states, ݌௕ is the fraction of bound ligand and ܭ஽ the dissociation constant of the protein-ligand complex. [ܴ]ଶ,௙ of 6-F-ManαOMe was measured in absence of the lectin, and Equation 2 was used to estimate ܭ஽and [ܴ]ଶ,௕ for the […]
Then, ܭூ of compounds 1, 1b-d, 2 and 3 was measured in a competitive manner. ܴଶ,௢௕௦ of 6-F-ManαOMe (spy molecule) in solution with DC-SIGN ECD was monitored at 5 different competitor concentrations ([ܫ]) in each case with a fixed [ܲ]்/[ܮ]் ratio (Figure S1, c)), to derive ܭூ by fitting to Equation 2 with ݌௕ as defined in Equations (4) and (5) (Table 2):
݌௕ = 3ܭ + 2 cos൫ߠൗ ൯ √ܽଶ − 3ܾ − ܽ (4)
ߠ = cos ൬ ଶඥ(௔మିଷ௕)య ൰, ܽ = ܭ஽ + ܭூ + [ܮ]் + [ܫ]் − [ܲ]், ܾ = ([ܫ]் − [ܲ]்)ܭ஽ + ([ܮ]் − [ܲ]்)ܭ஽ + ܭூܭ஽, ܿ = −ܭூܭ஽[ܲ]்
Figure S1. 19F-R2 filtered experiments. a) Relaxation dispersion experiment for 6-F-ManαOMe (the spy molecule). R2,obs of the 19F nucleus is measured for different values of ωCPMG. Ligand and protein sample concentrations were: [6-F-ManαOMe] = 400 µM, [DC-SIGN (CRDs)] = 10 µM (counting concentration of CRDs, i.e, 4 CRDs per DC-SIGN ECD tetramer). For ωCPMG > 1000 s-1, there is virtually negligible exchange contribution to R2. Therefore, all the subsequent R2 filtered experiments were carried out with τCPMG = 1/ωCPMG = 1 ms. b) KD determination of 6-F-ManαOMe with DC-SIGN. R2,obs was measured for increasing amounts of [6-F-ManαOMe]/[DC-SIGN (CRDs)] (blue dots). KD and R2,b were obtained from fitting to Equation 2, which is valid in the fast-exchange regime (Rex = 0) [39a]. The predicted values at each [6-F-ManαOMe]/[DC-SIGN (CRDs)] are shown as red stars for comparison c) Titration curves showing the variation in 19F-R2,obs of the spy molecule 6-F-ManαOMe, when increasing amounts of the competitors (I) 1, 1b-d, 2 and 3 are added to a mixture [6-F-ManαOMe] = 400 µM, [DC-SIGN (CRDs)] = 10 µM. […]

Ki [mM] | Structure (SMILES)
1.1 | CO[C@H]1O[C@H](CO[C@H]2O[C@H](CO)[C@@H](O)[C@H](O)[C@@H]2O)[C@@H](O)[C@H](O[C@H]2O[C@H](CO)[C@@H](O)[C@H](O)[C@@H]2O)[C@@H]1O [1b, reference compound]
1 | CO[C@H]1O[C@H](CO[C@H]2O[C@H](CO)[C@@H](O)[C@H](O)[C@@H]2O)[C@@H](O)[C@H](O[C@H]2O[C@H](CO)[C@@H](O)[C@H](O)[C@@H]2O)[C@@H]1F [1c]
1.1 | CO[C@H]1O[C@H](CO[C@H]2O[C@H](CO)[C@@H](O)[C@H](O)[C@@H]2O)[C@@H](O)[C@H](O[C@H]2O[C@H](CO)[C@@H](O)[C@H](O)[C@@H]2F)[C@@H]1O [1d]
